Patent US20080009418A1, “Selective Inhibitors” (Alchemia LTD., priority 2004, published 2008)

Assays:
Human neurokinin (NK1) = target: T1, Human neurokinin (NK1) (Homo sapiens, UniProt P25103); test: Radioligand binding, human neurokinin NK1 membranes, filtration, [125I]-Substance P; settings: compound at 10 μM; [125I]-Substance P
T1 construct: purchased Perkin Elmer Biosignal
Summary of the method: (§1)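 Membranes from cloned human receptors were incubated with compound and radioligand for 1 hour at room temperature. Bound ligand was collected on 0.3% PEI-soaked filters, washed with cold 50 mM Tris-HCl pH 7.4, and counted by scintillation. Percent inhibition was computed against DMSO totals and reference-ligand nonspecific wells.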

Human opioid (ORL1) = target: T2, Human opioid (ORL1) (Homo sapiens, UniProt P41146); test: Radioligand binding, human opioid ORL1 membranes, FlashPlate, [125I]-Nociceptin; settings: compound at 10 μM; [125I]-Nociceptin
T2 construct: purchased Perkin Elmer Biosignal
Summary of the method: (§2)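 Cloned human receptor membranes were coated onto FlashPlate wells and incubated with radioligand and compound (added from a 0.5 mM DMSO daughter plate) for 1 hour at room temperature in the dark. Scintillation counting gave percent inhibition, with DMSO defining total and reference ligand defining non-specific binding.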

Human melanocortin (MC5) = target: T3, Human melanocortin (MC5) (Homo sapiens, UniProt P33032); test: Radioligand binding, human melanocortin MC5 membranes, FlashPlate, [125I]-NDP-αMSH; settings: compound at 10 μM; [125I]-NDP-αMSH
T3 construct: purchased Perkin Elmer Biosignal
Summary of the method: as §2

Mouse urotensin (mUR2) = target: T4, Mouse urotensin (mUR2) (Mus musculus, UniProt Q8VIH9); test: Radioligand binding, mouse urotensin mUR2 membranes, FlashPlate, [125I]-Urotensin II; settings: compound at 10 μM; [125I]-Urotensin II
T4 construct: purchased Perkin Elmer Biosignal
T4 sequence (Q8VIH9 1-385): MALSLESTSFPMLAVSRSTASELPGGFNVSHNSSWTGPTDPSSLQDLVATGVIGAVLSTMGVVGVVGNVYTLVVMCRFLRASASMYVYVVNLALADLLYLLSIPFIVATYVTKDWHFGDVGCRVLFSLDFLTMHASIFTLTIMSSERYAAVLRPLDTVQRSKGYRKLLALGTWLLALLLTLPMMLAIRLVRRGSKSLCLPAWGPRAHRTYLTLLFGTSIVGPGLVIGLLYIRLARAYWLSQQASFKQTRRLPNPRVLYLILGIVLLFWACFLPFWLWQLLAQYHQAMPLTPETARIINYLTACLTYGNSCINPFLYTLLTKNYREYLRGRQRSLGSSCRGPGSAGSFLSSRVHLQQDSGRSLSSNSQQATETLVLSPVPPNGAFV
Summary of the method: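 Cloned mouse urotensin (mUR2) receptor membranes from Perkin Elmer Biosignal were immobilized in FlashPlate microplates using a proprietary coating. Each well got 19.5 μl buffer, then 0.5 μl of DMSO, reference ligand, or compound. Adding 5 μl of [125I]-Urotensin II, diluted to 5× final concentration in binding buffer, started binding. Plates were sealed with TopSeal-A and incubated 1 hour at room temperature in the dark. Wells were counted for 30 seconds each on a TopCount after a 60-second delay, and percentage inhibition was calculated.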

[1] = target: T5, Human neuropeptide Y (NPY-Y1) (Homo sapiens, UniProt P25929); test: Radioligand binding, human neuropeptide Y NPY-Y1 membranes, FlashPlate, [125I]-PYY; settings: compound at 10 μM; [125I]-PYY
T5 construct: purchased Perkin Elmer Biosignal
T5 sequence (P25929 1-384): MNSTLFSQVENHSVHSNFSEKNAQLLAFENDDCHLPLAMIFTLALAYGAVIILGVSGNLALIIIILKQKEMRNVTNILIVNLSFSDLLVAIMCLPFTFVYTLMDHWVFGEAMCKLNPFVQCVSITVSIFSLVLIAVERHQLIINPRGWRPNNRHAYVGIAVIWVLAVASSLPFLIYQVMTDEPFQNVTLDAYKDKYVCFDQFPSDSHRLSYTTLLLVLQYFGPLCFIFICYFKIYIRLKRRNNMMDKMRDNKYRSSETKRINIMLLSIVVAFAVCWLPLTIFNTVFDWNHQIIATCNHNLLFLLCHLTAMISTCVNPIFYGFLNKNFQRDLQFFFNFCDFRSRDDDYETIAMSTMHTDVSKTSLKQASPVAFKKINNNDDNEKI
Summary of the method: as §2

Human Melanocortin (MC3) = target: T6, Human Melanocortin (MC3) (Homo sapiens, UniProt P41968); test: Radioligand binding, human melanocortin MC3 membranes, FlashPlate, [125I]-NDP-αMSH; settings: compound at 10 μM; [125I]-NDP-αMSH
T6 construct: purchased Perkin Elmer Biosignal
Summary of the method: as §2

Human κ-Opioid (KOP) = target: T7, Human κ-Opioid (KOP) (Homo sapiens, UniProt P41145); test: Radioligand binding, human κ-opioid (KOP) membranes, filtration, [3H]-Diprenorphine; settings: compound at 10 μM; [3H]-Diprenorphine
T7 construct: purchased Perkin Elmer Biosignal
Summary of the method: as §1

[2] = target: T8, Human melanin-concentrating hormone (MCH1) (Homo sapiens, UniProt Q99705); test: Radioligand binding, human melanin-concentrating hormone MCH1 membranes, FlashPlate, [125I]-S36057; settings: compound at 10 μM; [125I]-S36057
T8 construct: purchased Perkin Elmer Biosignal
Summary of the method: as §2

Human Melanocortin (MC4) = target: T9, Human Melanocortin (MC4) (Homo sapiens, UniProt P32245); test: Radioligand binding, human melanocortin MC4 membranes, FlashPlate, [125I]-NDP-αMSH; settings: compound at 10 μM; [125I]-NDP-αMSH
T9 construct: purchased Perkin Elmer Biosignal
Summary of the method: as §2

Human μ-opioid (MOP) = target: T10, Human μ-opioid (MOP) (Homo sapiens, UniProt P35372); test: Radioligand binding, human μ-opioid (MOP) membranes, FlashPlate, [3H]-Naloxone; settings: compound at 10 μM; [3H]-Naloxone
T10 construct: purchased Perkin Elmer Biosignal
Summary of the method: as §2

Human δ-opioid (DOP) = target: T11, Human δ-opioid (DOP) (Homo sapiens, UniProt P41143); test: Radioligand binding, human δ-opioid (DOP) membranes, FlashPlate, [3H]-Bremazocine; settings: compound at 10 μM; [3H]-Bremazocine
T11 construct: purchased Perkin Elmer Biosignal
Summary of the method: as §2

T10 sequence (P35372 whole entry): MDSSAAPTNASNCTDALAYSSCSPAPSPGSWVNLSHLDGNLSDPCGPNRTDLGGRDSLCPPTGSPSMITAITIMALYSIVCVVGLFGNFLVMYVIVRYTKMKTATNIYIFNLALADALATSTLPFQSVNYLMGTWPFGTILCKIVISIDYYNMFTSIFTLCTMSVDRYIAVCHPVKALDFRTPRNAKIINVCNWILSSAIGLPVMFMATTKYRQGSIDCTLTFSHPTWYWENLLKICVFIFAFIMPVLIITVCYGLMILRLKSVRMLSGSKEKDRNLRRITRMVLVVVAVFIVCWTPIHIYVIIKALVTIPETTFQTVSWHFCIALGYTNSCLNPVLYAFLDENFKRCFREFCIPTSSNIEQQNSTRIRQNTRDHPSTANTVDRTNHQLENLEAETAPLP
T1 sequence (P25103 whole entry): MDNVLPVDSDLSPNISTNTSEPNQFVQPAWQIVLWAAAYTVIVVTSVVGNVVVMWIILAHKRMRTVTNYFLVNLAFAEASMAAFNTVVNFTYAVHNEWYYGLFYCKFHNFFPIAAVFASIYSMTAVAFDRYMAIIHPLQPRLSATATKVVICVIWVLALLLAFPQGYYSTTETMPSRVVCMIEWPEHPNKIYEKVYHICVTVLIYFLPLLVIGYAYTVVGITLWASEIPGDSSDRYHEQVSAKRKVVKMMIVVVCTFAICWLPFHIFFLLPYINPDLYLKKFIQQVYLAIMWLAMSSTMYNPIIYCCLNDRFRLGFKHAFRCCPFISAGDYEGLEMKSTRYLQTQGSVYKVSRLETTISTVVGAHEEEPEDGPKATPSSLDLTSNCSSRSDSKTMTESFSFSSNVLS
T2 sequence (P41146 whole entry): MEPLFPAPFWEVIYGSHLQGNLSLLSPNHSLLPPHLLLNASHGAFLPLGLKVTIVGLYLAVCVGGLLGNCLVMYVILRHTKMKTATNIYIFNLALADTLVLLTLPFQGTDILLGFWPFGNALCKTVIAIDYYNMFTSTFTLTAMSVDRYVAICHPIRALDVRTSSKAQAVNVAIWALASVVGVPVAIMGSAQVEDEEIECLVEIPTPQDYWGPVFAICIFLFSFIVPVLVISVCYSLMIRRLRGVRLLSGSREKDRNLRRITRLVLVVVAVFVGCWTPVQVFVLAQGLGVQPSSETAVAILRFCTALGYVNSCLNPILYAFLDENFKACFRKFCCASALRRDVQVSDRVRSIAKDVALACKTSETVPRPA
T6 sequence (P41968 whole entry): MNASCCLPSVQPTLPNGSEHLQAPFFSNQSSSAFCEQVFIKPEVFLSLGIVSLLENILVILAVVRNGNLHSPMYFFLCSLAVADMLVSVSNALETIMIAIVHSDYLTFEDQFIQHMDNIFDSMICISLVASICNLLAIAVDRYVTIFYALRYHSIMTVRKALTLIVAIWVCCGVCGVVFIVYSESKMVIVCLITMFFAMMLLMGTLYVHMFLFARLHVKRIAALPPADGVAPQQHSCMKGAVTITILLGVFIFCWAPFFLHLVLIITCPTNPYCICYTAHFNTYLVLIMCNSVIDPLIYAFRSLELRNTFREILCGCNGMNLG
T3 sequence (P33032 whole entry): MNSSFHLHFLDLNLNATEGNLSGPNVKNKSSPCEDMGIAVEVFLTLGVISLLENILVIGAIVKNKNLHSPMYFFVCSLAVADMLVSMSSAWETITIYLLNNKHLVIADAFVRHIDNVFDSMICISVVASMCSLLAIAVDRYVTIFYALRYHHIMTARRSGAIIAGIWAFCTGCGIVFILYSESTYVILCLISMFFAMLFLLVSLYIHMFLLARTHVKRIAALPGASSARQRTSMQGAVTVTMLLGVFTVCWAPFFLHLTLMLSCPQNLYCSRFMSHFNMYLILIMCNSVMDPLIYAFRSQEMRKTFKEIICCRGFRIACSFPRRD
T8 sequence (Q99705 whole entry): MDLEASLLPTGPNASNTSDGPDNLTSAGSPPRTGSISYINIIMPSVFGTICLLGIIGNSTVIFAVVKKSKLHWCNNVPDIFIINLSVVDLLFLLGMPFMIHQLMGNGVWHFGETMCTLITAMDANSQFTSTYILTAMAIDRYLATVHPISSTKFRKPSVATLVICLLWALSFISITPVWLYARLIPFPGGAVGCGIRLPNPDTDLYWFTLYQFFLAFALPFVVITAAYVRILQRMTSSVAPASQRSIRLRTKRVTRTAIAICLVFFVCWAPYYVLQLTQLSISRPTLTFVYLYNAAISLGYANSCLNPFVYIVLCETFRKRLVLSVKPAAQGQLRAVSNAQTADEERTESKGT
T7 sequence (P41145 whole entry): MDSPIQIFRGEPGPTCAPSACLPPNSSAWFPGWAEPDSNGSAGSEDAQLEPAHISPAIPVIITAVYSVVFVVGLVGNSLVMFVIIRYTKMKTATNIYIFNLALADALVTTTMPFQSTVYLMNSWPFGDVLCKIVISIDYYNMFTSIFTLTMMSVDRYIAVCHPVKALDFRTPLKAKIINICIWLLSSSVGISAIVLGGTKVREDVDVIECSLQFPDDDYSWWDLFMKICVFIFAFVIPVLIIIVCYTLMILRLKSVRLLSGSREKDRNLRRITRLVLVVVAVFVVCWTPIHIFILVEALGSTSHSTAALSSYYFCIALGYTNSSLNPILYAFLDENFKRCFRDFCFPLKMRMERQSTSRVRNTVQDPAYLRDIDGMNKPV
T11 sequence (P41143 whole entry): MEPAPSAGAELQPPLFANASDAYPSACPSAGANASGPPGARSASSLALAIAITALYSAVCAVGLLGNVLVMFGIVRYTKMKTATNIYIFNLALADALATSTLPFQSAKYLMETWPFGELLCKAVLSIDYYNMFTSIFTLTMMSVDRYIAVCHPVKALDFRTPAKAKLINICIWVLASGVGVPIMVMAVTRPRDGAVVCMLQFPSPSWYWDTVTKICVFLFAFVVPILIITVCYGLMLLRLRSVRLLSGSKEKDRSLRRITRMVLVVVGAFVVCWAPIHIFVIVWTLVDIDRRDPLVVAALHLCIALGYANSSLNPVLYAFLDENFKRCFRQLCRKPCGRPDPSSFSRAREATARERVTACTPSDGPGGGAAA
T9 sequence (P32245 whole entry): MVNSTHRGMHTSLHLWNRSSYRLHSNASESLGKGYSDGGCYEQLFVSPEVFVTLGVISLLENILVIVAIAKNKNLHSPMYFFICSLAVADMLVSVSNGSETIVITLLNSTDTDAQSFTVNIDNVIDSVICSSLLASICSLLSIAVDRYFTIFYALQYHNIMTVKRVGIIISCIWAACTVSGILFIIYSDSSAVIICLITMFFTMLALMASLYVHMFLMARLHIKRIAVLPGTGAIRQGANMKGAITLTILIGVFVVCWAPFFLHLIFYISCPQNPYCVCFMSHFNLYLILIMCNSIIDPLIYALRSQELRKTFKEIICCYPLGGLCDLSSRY

Structure (SMILES)	A8 radioligand binding, percentage inhibition (Human neurokinin (NK1))	A10 radioligand binding, percentage inhibition (Human opioid (ORL1))	A5 radioligand binding, percentage inhibition (Human melanocortin (MC5))	A11 radioligand binding, percentage inhibition (Mouse urotensin (mUR2))	A9 radioligand binding, percentage inhibition [1]	A3 radioligand binding, percentage inhibition (Human Melanocortin (MC3))	A2 radioligand binding, percentage inhibition (Human κ-Opioid (KOP))	A6 radioligand binding, percentage inhibition [2]	A4 radioligand binding, percentage inhibition (Human Melanocortin (MC4))	A7 radioligand binding, percentage inhibition (Human μ-opioid (MOP))	A1 radioligand binding, percentage inhibition (Human δ-opioid (DOP))
CO[C@H]1[C@H](O)[C@@H](COCc2ccc3ccccc3c2)OC(OCc2cccc(O)c2)[C@@H]1NC(=O)CCCN (stereo partly shown) [compound 167]	+ (“+” indicates greater than 50% inhibition at 10 μM)	− (“−” indicates less than 50% inhibition at 10 μM)	− (“−” indicates less than 50% inhibition at 10 μM)	− (“−” indicates less than 50% inhibition at 10 μM)	− (“−” indicates less than 50% inhibition at 10 μM)	− (“−” indicates less than 50% inhibition at 10 μM)	− (“−” indicates less than 50% inhibition at 10 μM)	− (“−” indicates less than 50% inhibition at 10 μM)	− (“−” indicates less than 50% inhibition at 10 μM)	− (“−” indicates less than 50% inhibition at 10 μM)	− (“−” indicates less than 50% inhibition at 10 μM)
CO[C@H]1[C@H](O)[C@@H](COCc2ccc3ccccc3c2)OC(OCc2cccc(O)c2)[C@@H]1NC(=O)CCCNC(=N)N (stereo partly shown) [compound 168]	+ (“+” indicates greater than 50% inhibition at 10 μM)	− (“−” indicates less than 50% inhibition at 10 μM)	− (“−” indicates less than 50% inhibition at 10 μM)	− (“−” indicates less than 50% inhibition at 10 μM)	− (“−” indicates less than 50% inhibition at 10 μM)	− (“−” indicates less than 50% inhibition at 10 μM)	− (“−” indicates less than 50% inhibition at 10 μM)	− (“−” indicates less than 50% inhibition at 10 μM)	− (“−” indicates less than 50% inhibition at 10 μM)	+ (“+” indicates greater than 50% inhibition at 10 μM)	− (“−” indicates less than 50% inhibition at 10 μM)
CO[C@H]1[C@H](O)[C@@H](COCc2ccc(Cl)cc2)OC(OCc2cccc(O)c2)[C@@H]1NC(=O)CCCN (stereo partly shown) [compound 169]	+ (“+” indicates greater than 50% inhibition at 10 μM)	− (“−” indicates less than 50% inhibition at 10 μM)	− (“−” indicates less than 50% inhibition at 10 μM)	− (“−” indicates less than 50% inhibition at 10 μM)	− (“−” indicates less than 50% inhibition at 10 μM)	− (“−” indicates less than 50% inhibition at 10 μM)	− (“−” indicates less than 50% inhibition at 10 μM)	− (“−” indicates less than 50% inhibition at 10 μM)	− (“−” indicates less than 50% inhibition at 10 μM)	− (“−” indicates less than 50% inhibition at 10 μM)	− (“−” indicates less than 50% inhibition at 10 μM)
CO[C@H]1[C@H](O)[C@@H](COCc2ccc(Cl)cc2)OC(OCc2cccc(O)c2)[C@@H]1NC(=O)CCCNC(=N)N (stereo partly shown) [compound 170]	+ (“+” indicates greater than 50% inhibition at 10 μM)	− (“−” indicates less than 50% inhibition at 10 μM)	+ (“+” indicates greater than 50% inhibition at 10 μM)	− (“−” indicates less than 50% inhibition at 10 μM)	− (“−” indicates less than 50% inhibition at 10 μM)	− (“−” indicates less than 50% inhibition at 10 μM)	− (“−” indicates less than 50% inhibition at 10 μM)	− (“−” indicates less than 50% inhibition at 10 μM)	− (“−” indicates less than 50% inhibition at 10 μM)	+ (“+” indicates greater than 50% inhibition at 10 μM)	− (“−” indicates less than 50% inhibition at 10 μM)
COCC1OC(OCc2ccccc2)C(NC(=O)CNC(=N)N)C(OCc2ccccc2)C1O (stereo not shown) [compound 171]	+ (“+” indicates greater than 50% inhibition at 10 μM)	− (“−” indicates less than 50% inhibition at 10 μM)	+ (“+” indicates greater than 50% inhibition at 10 μM)	− (“−” indicates less than 50% inhibition at 10 μM)	− (“−” indicates less than 50% inhibition at 10 μM)	− (“−” indicates less than 50% inhibition at 10 μM)	− (“−” indicates less than 50% inhibition at 10 μM)	− (“−” indicates less than 50% inhibition at 10 μM)	− (“−” indicates less than 50% inhibition at 10 μM)	− (“−” indicates less than 50% inhibition at 10 μM)	− (“−” indicates less than 50% inhibition at 10 μM)
